# Patent US11925724B2, “Compounds with dual activity” (priority 2015, dated 2024)
# Square brackets hold non-standard residues; d marks the D form. Ends that are not written are not given here. Peptide text beside a SMILES is read from it. Phe(4-F) = N[CH](Cc1ccc(F)cc1)C(=O)O; Dopa = N[CH](Cc1ccc(O)c(O)c1)C(=O)O
# Columns and labels:
# [1] = Peptide layer thickness on Ti by XPS; assay type: physicochemical; conditions: peptide-coated Ti substrate
# Source text: Using X-ray Photoelectron Spectrometry (XPS) analysis, the presence of fluorine atoms on the surface and the thickness of the peptide layer were characterized. As expected, in the case of a bare titanium, there was no indication of the presence of fluorine, while in all cases of substrate-coated with peptides, the presence of fluorine signal indicated the deposition of the peptides on the surface (FIG. 3).
# [2] = tested on: Escherichia Coli; assay: Adherence of Escherichia Coli to bare and peptide coated substrates (live bacteria count after biofilm formation); assay type: cell-based; conditions: peptide-coated Ti, overnight incubation in bacteria medium, CFU plate counts
# Description: To assess the bacterial attachment to the surfaces and the anti-fouling activity of the peptides, the adherence of Escherichia Coli to bare and peptide coated substrates was promoted. Following this, the surfaces incubated overnight in the bacteria medium to enable the biofilm formation. After the incubation, the surfaces were slowly rinsed, swabbed the adhered bacteria and seeded them in order to evaluate the number of live bacteria on the substrates. […] Escherichia coli were grown in LB medium for 5.5 hours at 37° C. in loosely capped erlenmeyer flask with agitation (120 rpm). […] Afterward, LB media (2 mL) were added to each well and the plates were incubated at 37° C. overnight. Each surface was rinsed by shaking the surface in sterilized water three times. A sterile swab was then used to pick up the biofilms attached to the surfaces. The swabs were inserted into eppendorf tubes containing 1 mL of sterilized water and vortexed for 1 min. Each sample was decimally diluted and plated out on dried LB agar (10 g LB and 7.5 g agar per 0.5 L TDW) plate (8 drops of 10 ul for each dilution). Plate counts (CFU mL-1) were carried out after incubation over night at 37° C. The data presents 3 experiments with triplicates for each experiment. The data is given as mean values ±standard deviations. Significant differences between group means were analyzed by t-test and confidence levels were set at 95%.
Compound,thickness of the peptide layer (XPS) [1],reduction of live bacteria on substrate as compared to a bare Ti surface [2]
N=C(N)NCCCC(NC(=O)C(Cc1ccc(O)c(O)c1)NC(=O)C(Cc1ccc(F)cc1)NC(=O)C(N)Cc1ccc(F)cc1)C(=O)NCC(=O)NC(CC(=O)O)C(N)=O (stereo not drawn) [Peptide 2] (H-[Phe(4-F)][Phe(4-F)][Dopa]RGD-NH2; configuration not given here),4.33 nm,≤ 82%
"N=C(N)NCCCC(NC(=O)C(Cc1ccc(F)cc1)NC(=O)C(Cc1ccc(F)cc1)NC(=O)C(N)Cc1ccc(O)c(O)c1)C(=O)NCC(=O)NC(CC(=O)O)C(N)=O (stereo not drawn) [Peptide 1, DOPA-Phe(4F)-Phe(4F)-Arg-Gly-Asp] (H-[Dopa][Phe(4-F)][Phe(4-F)]RGD-NH2; configuration not given here)",4.74 nm,up to 80%
N=C(N)NCCCC(NC(=O)C(Cc1ccc(F)cc1)NC(=O)C(CC(=O)O)NC(=O)C(N)Cc1ccc(O)c(O)c1)C(=O)NC(Cc1ccc(F)cc1)C(=O)NCC(N)=O (stereo not drawn) [Peptide 3] (H-[Dopa]D[Phe(4-F)]R[Phe(4-F)]G-NH2; configuration not given here),,up to 72%
"Peptide 4: control peptide with the same amino acids in mixed sequence, without the cell adhesion and the anti-fouling elements ([Dopa][Phe(4-F)]DG[Phe(4-F)]R; not fully specified (C-terminus))",,≤ 62%
